Values of other authors as cited in publication PMC4232468 (Nature chemical biology, 2014).

Structure (SMILES): Cc1ccc2c(=O)c3cccc(CC(=O)O)c3oc2c1C [DMXAA, 5,6-dimethylxanthenone-4-acetic acid]
- activation of mouse STING (mouse STING (mSTING)): activates mouse STING (mSTING)
- activation of human STING (human STING (hSTING)): not human STING (hSTING)
